Test results taken from ChEMBL document CHEMBL1133808, “The discovery of sulfonylated dipeptides as potent VLA-4 antagonists” (Bioorg Med Chem Lett, 2001).

target: Integrin alpha-4/beta-1 (Homo sapiens, UniProt P05556+P13612); assay: Antagonistic activity against VLA-4 integrin of human jurkat cells using [125I]VCAM-Ig as radioligand; type: functional, cell-based; conditions: not given
Sequence (P05556 whole entry, one chain of several): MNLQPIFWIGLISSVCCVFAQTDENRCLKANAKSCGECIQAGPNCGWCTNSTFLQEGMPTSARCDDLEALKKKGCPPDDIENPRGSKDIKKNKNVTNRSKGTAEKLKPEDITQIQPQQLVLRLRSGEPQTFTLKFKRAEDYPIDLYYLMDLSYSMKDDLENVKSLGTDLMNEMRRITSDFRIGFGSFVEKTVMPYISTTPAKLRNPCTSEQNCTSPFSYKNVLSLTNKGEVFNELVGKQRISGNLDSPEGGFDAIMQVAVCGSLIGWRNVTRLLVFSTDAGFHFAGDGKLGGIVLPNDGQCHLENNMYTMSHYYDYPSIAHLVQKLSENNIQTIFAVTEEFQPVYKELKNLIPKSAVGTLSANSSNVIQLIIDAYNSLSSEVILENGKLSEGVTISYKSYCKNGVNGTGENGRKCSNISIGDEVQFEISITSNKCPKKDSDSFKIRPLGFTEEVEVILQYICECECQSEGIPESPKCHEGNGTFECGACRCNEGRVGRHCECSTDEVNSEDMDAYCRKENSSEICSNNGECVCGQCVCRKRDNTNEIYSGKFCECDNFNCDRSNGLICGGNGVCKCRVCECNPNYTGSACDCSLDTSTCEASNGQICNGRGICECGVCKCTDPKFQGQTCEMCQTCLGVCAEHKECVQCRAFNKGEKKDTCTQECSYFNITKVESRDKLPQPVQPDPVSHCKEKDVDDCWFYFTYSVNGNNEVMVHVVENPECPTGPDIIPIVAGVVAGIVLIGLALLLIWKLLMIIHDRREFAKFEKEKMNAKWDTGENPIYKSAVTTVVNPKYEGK

Compound	IC50 [nM]
COc1ccc(S(=O)(=O)N2Cc3ccccc3C[C@H]2C(=O)N[C@@H](CCCNC(=N)N)C(=O)O)cc1OC	360
O=C(O)c1ccccc1-c1ccc(C[C@H](NC(=O)[C@@H]2CCCN2S(=O)(=O)c2cc(Cl)cc(Cl)c2)C(=O)O)cc1	0.95
CCCC[C@H](NC(=O)[C@@H]1Cc2ccccc2CN1S(=O)(=O)c1cc(Cl)cc(Cl)c1)C(=O)O	10
O=C(O)[C@H](Cc1ccc(-c2ccccc2F)cc1)NC(=O)[C@@H]1CCCN1S(=O)(=O)c1cc(Cl)cc(Cl)c1	1.02
CSc1ccccc1-c1ccc(C[C@H](NC(=O)[C@@H]2CCCN2S(=O)(=O)c2cc(Cl)cc(Cl)c2)C(=O)O)cc1	0.36
CCCC[C@H](NC(=O)[C@@H]1CCCN1S(=O)(=O)c1ccc(OC)c(OC)c1)C(=O)O	45
COc1ccc(S(=O)(=O)N2Cc3ccccc3C[C@H]2C(=O)N[C@@H](Cc2ccc3ccccc3c2)C(=O)O)cc1OC	7
COc1ccccc1-c1ccc(C[C@H](NC(=O)[C@]2(C)CCCN2S(=O)(=O)c2cc(Cl)cc(Cl)c2)C(=O)O)cc1	0.52
O=Cc1ccc(-c2ccc(C[C@H](NC(=O)[C@@H]3CCCN3S(=O)(=O)c3cc(Cl)cc(Cl)c3)C(=O)O)cc2)cc1	0.38
C[C@@]1(C(=O)N[C@@H](Cc2ccc(-c3cc(C#N)ccc3F)cc2)C(=O)O)CCCN1S(=O)(=O)c1cc(Cl)cc(Cl)c1	1.01
C[C@@]1(C(=O)N[C@@H](Cc2ccc(-c3cccc4cc[nH]c34)cc2)C(=O)O)CCCN1S(=O)(=O)c1cc(Cl)cc(Cl)c1	1.33
C[C@@]1(C(=O)N[C@@H](Cc2ccc(-c3ccccc3F)cc2)C(=O)O)CCCN1S(=O)(=O)c1cc(Cl)cc(Cl)c1	2.4
O=C(O)[C@H](Cc1ccc(-c2ccccc2)cc1)NC(=O)[C@@H]1CCCN1S(=O)(=O)c1cc(Cl)cc(Cl)c1	0.63
Cc1ccc(-c2ccc(C[C@H](NC(=O)[C@@H]3CCCN3S(=O)(=O)c3cc(Cl)cc(Cl)c3)C(=O)O)cc2)cc1	1.53

Second part, the compound after the results:

IC50 [nM]	Compound
0.13	CN(C)C(=O)c1ccccc1-c1ccc(C[C@H](NC(=O)[C@@H]2CCCN2S(=O)(=O)c2cc(Cl)cc(Cl)c2)C(=O)O)cc1
0.35	C[C@@]1(C(=O)N[C@@H](Cc2ccc(-c3cccnc3)cc2)C(=O)O)CCCN1S(=O)(=O)c1cc(Cl)cc(Cl)c1
0.23	O=Cc1cccc(-c2ccc(C[C@H](NC(=O)[C@@H]3CCCN3S(=O)(=O)c3cc(Cl)cc(Cl)c3)C(=O)O)cc2)c1
0.24	C[C@@]1(C(=O)N[C@@H](Cc2ccc(-c3nccs3)cc2)C(=O)O)CCCN1S(=O)(=O)c1cc(Cl)cc(Cl)c1
0.22	CN(C)C(=O)c1ccccc1-c1ccc(C[C@H](NC(=O)[C@]2(C)CCCN2S(=O)(=O)c2cc(Cl)cc(Cl)c2)C(=O)O)cc1
0.15	COC(=O)c1ccccc1-c1ccc(C[C@H](NC(=O)[C@@H]2CCCN2S(=O)(=O)c2cc(Cl)cc(Cl)c2)C(=O)O)cc1
0.22	O=Cc1ccccc1-c1ccc(C[C@H](NC(=O)[C@@H]2CCCN2S(=O)(=O)c2cc(Cl)cc(Cl)c2)C(=O)O)cc1
0.1	CNC(=O)c1ccccc1-c1ccc(C[C@H](NC(=O)[C@@H]2CCCN2S(=O)(=O)c2cc(Cl)cc(Cl)c2)C(=O)O)cc1

tested on: not listed separately; assay: Plasma clearance in Sprague-Dawley rats; type: ADME, organism-based; conditions: rat, read-out: Clp

Compound	clearance [mL/min/kg]
COc1ccccc1-c1ccc(C[C@H](NC(=O)[C@]2(C)CCCN2S(=O)(=O)c2cc(Cl)cc(Cl)c2)C(=O)O)cc1	20

target: T1, Integrin alpha-4/beta-7 (Homo sapiens, UniProt P13612+P26010); assay: Inhibition of [125I]VCAM-Ig binding to alpha4-beta7 integrin of human RPMI-8866 cells; type: cell-based; conditions: not given
T1 sequence (P13612 whole entry): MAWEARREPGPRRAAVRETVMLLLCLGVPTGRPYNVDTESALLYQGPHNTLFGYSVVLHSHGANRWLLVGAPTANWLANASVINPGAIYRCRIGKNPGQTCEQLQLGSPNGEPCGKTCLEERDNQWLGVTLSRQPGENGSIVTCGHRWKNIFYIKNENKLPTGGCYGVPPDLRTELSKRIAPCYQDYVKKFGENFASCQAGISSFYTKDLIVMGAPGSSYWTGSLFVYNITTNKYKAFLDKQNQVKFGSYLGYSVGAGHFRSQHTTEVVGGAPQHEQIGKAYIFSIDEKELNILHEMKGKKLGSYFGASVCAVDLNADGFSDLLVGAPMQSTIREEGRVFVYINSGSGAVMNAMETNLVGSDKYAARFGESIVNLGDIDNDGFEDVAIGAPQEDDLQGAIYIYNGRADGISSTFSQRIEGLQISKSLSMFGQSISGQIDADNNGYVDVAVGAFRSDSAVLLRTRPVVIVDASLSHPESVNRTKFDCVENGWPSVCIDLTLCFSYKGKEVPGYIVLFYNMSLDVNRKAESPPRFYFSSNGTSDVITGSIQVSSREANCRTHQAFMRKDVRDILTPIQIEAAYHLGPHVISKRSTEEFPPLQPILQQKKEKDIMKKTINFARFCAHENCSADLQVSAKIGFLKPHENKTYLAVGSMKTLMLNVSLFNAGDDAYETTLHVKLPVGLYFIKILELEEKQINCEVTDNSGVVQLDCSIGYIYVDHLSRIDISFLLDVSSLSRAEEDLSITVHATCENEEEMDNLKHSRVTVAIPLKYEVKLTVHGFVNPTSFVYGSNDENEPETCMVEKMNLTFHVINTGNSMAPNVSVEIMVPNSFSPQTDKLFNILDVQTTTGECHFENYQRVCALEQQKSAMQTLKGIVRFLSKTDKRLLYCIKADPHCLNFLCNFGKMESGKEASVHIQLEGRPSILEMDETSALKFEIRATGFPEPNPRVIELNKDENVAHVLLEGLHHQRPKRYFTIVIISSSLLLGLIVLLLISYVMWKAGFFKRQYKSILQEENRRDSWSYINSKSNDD
T1 sequence (P26010 whole entry): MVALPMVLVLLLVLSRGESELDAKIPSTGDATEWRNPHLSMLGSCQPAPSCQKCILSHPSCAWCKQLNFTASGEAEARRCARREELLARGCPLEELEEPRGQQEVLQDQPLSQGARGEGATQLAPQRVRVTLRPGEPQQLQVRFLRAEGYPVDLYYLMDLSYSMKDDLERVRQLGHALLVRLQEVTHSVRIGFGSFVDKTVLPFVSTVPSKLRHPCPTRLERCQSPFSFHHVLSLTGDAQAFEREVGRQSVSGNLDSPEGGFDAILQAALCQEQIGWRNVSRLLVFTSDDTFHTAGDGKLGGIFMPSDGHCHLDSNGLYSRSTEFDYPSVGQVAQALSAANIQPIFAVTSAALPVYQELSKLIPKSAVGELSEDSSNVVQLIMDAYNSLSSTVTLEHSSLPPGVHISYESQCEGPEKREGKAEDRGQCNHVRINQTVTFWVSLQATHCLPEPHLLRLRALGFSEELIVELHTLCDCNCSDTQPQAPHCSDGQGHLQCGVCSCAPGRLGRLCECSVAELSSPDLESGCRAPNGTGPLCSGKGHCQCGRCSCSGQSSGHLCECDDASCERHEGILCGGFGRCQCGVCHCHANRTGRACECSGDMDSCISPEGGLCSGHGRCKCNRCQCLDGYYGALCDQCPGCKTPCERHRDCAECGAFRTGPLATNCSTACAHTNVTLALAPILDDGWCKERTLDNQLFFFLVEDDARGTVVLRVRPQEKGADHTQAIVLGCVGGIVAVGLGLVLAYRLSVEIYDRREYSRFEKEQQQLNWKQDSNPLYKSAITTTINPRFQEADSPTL

Compound	IC50 [nM]
COc1ccccc1-c1ccc(C[C@H](NC(=O)[C@]2(C)CCCN2S(=O)(=O)c2cc(Cl)cc(Cl)c2)C(=O)O)cc1	242
C[C@@]1(C(=O)N[C@@H](Cc2ccc(-c3cc(C#N)ccc3F)cc2)C(=O)O)CCCN1S(=O)(=O)c1cc(Cl)cc(Cl)c1	1240
C[C@@]1(C(=O)N[C@@H](Cc2ccc(-c3cccc4cc[nH]c34)cc2)C(=O)O)CCCN1S(=O)(=O)c1cc(Cl)cc(Cl)c1	5720
C[C@@]1(C(=O)N[C@@H](Cc2ccc(-c3ccccc3F)cc2)C(=O)O)CCCN1S(=O)(=O)c1cc(Cl)cc(Cl)c1	> 4000

The next lines start with the values.

IC50 [nM]	Compound
311	C[C@@]1(C(=O)N[C@@H](Cc2ccc(-c3cccnc3)cc2)C(=O)O)CCCN1S(=O)(=O)c1cc(Cl)cc(Cl)c1
413	C[C@@]1(C(=O)N[C@@H](Cc2ccc(-c3nccs3)cc2)C(=O)O)CCCN1S(=O)(=O)c1cc(Cl)cc(Cl)c1
82.7	CN(C)C(=O)c1ccccc1-c1ccc(C[C@H](NC(=O)[C@]2(C)CCCN2S(=O)(=O)c2cc(Cl)cc(Cl)c2)C(=O)O)cc1
